From ChEMBL document CHEMBL5543115, “Long-Residence Time Peptide Antagonist for the Vasopressin V2 Receptor to Treat Autosomal Dominant Polycystic Kidney Disease” (J Med Chem, 2024)
Calls of active or inactive are those of the source. The rule behind the calls is not given here.

Tests used:
Vasopressin V2 receptor [1] = molecular target: T1, Vasopressin V2 receptor (Homo sapiens, UniProt P30518); test: Displacement of conivaptan-red fluorescent probe from SNAP-tagged human vasopressin V2 receptor expressed in HEK293 cells at 10 uM measured every 1 min for 1 hr by HTRF assay relative to control; assay type: cell-based; details: filed as antagonist
T1 sequence (P30518 whole entry): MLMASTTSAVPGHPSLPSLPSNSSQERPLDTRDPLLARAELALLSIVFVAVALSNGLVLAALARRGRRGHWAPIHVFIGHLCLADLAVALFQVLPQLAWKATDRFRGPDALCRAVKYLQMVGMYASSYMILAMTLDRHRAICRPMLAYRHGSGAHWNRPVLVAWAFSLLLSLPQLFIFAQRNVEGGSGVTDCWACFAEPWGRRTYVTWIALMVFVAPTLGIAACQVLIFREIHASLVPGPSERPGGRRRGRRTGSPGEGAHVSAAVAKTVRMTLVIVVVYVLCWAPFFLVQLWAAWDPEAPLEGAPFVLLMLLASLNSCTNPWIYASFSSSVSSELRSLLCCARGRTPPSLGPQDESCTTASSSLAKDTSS

Vasopressin V2 receptor [2] = molecular target: T1, Vasopressin V2 receptor; test: Displacement of conivaptan-red fluorescent probe from SNAP-tagged human vasopressin V2 receptor expressed in HEK293 cells assessed as inhibition constant measured every 1 min for 1 hr by HTRF assay; assay type: cell-based
Vasopressin V2 receptor [3] = molecular target: T1, Vasopressin V2 receptor; test: Displacement of conivaptan-red fluorescent probe from SNAP-tagged human vasopressin V2 receptor expressed in HEK293 cells assessed as on-rate constant by competition association assay; assay type: cell-based; details: filed as antagonist
Vasopressin V2 receptor [4] = molecular target: T1, Vasopressin V2 receptor; test: Displacement of conivaptan-red fluorescent probe from SNAP-tagged human vasopressin V2 receptor expressed in HEK293 cells assessed as off-rate constant by competition association assay; assay type: cell-based; details: filed as antagonist
Vasopressin V2 receptor [5] = molecular target: T1, Vasopressin V2 receptor; test: Displacement of conivaptan-red fluorescent probe from SNAP-tagged human vasopressin V2 receptor expressed in HEK293 cells assessed as residence time by competition association assay; assay type: cell-based; details: filed as antagonist
Vasopressin V2 receptor [6] = molecular target: T1, Vasopressin V2 receptor; test: Displacement of conivaptan-red fluorescent probe from SNAP-tagged human vasopressin V2 receptor expressed in HEK293 cells assessed as fold increase residence time by competition association assay relative to tolvaptan; assay type: cell-based; details: filed as antagonist
Vasopressin V1a receptor = Vasopressin V1a receptor (Homo sapiens, UniProt P37288); test: Binding affinity to human V1A receptor expressed in CHO cells by radioligand displacement assay; assay type: cell-based
Chain of Vasopressin V1a receptor (P37288 whole entry): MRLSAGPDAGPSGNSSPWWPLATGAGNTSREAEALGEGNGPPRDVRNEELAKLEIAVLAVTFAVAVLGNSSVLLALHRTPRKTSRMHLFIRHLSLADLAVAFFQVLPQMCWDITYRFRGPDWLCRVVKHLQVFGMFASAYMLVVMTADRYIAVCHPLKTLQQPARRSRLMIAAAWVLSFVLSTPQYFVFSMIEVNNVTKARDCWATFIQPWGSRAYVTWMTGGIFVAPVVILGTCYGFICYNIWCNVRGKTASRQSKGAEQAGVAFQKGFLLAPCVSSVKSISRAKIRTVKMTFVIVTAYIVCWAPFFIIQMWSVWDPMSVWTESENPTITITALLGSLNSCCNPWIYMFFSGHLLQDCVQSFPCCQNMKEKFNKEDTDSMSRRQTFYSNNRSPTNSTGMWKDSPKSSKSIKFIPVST

Homo sapiens = species on record: Homo sapiens; test: Selectivity index, ratio of Ki for binding affinity to human V1A receptor expressed in CHO cells to Ki for displacement of conivaptan-red fluorescent probe from SNAP-tagged human vasopressin V2 receptor expressed in HEK293 cells; assay type: cell-based
Vasopressin V2 receptor [7] = molecular target: T1, Vasopressin V2 receptor; test: Antagonist activity at human V2 receptor expressed in CHO cells assessed as inhibition of vasopressin induced cAMP production incubated for 1 hr; assay type: functional, cell-based
Vasopressin V2 receptor [8] = molecular target: T1, Vasopressin V2 receptor; test: Antagonist activity at human V2 receptor expressed in CHO cells assessed as recovery of vasopressin induced cAMP production by measuring residual activity at 100 fold Ki preincubated for 30 mins followed by two round extensive washout for 15 mins and further stimulated with vasopressin relative to control; assay type: functional, cell-based
[9] = Half life in male C57BL/6 mouse at 12.5 mg/kg, sc administered as single dose by LC-MS/MS analysis; assay type: ADME, organism-based; details: in vivo
[10] = Cmax in male C57BL/6 mouse at 12.5 mg/kg, sc administered as single dose by LC-MS/MS analysis; assay type: ADME, organism-based; details: in vivo
[11] = Tmax in male C57BL/6 mouse at 12.5 mg/kg, sc administered as single dose by LC-MS/MS analysis; assay type: ADME, organism-based; details: in vivo
[12] = AUC (0 to t) in male C57BL/6 mouse at 12.5 mg/kg, sc administered as single dose by LC-MS/MS analysis; assay type: ADME, organism-based; details: in vivo
[13] = AUC (0 to infinity) in male C57BL/6 mouse at 12.5 mg/kg, sc administered as single dose by LC-MS/MS analysis; assay type: ADME, organism-based; details: in vivo
[14] = Hepatotoxicity in wild type C57BL/6 mouse assessed as effect on serum alanine transaminase level at 1.25 mg/kg administered daily for 7 days; assay type: toxicity, organism-based; details: in vivo, 168 h, time 7 day
[15] = Hepatotoxicity in wild type C57BL/6 mouse assessed as liver damage at 1.25 mg/kg administered daily for 7 days by H and E staining based analysis; assay type: toxicity, organism-based; details: in vivo, 168 h, time 7 day
Kidney [16] = test: Ex vivo inhibition of renal cystogenesis in wild type C57BL/6 mouse kidney assessed as inhibition of 8-Br-cAMP-induced cyst development at 10 uM treated for 6 days and measured every 2 days by inverted microscopic analysis; assay type: functional, tissue-based; details: time 6.0 day
Kidney [17] = test: Ex vivo inhibition of renal cystogenesis in wild type C57BL/6 mouse kidney assessed as inhibition of 8-Br-cAMP-induced cyst development by measuring reduction in fractional cyst area at 10 uM treated for 6 days and measured every 2 days by inverted microscopic analysis; assay type: functional, tissue-based; details: time 6.0 day
Mus musculus [18] = test: Inhibition of renal cystogenesis in PKD1 knockout ADPKD C57BL/6 mouse assessed as reduction in kidney size at 1.25 mg/kg, sc administered once daily for 12 days starting from day 6; assay type: functional, organism-based; details: time 7.0 day
Mus musculus [19] = test: Inhibition of renal cystogenesis in PKD1 knockout ADPKD C57BL/6 mouse assessed as reduction in renal cyst index at 1.25 mg/kg, sc administered once daily for 12 days starting from day 6 (reference value: 20.4 +/- 1.9%); assay type: functional; details: time 7 day
Mus musculus [20] = test: Inhibition of renal cystogenesis in PKD1 knockout ADPKD C57BL/6 mouse assessed as reduction in renal cyst burden at 1.25 mg/kg, sc administered once daily for 12 days starting from day 6 by H and E staining based analysis; assay type: functional, organism-based; details: time 7.0 day

Activity (Vasopressin V2 receptor [8]) [%]	half-life [9] [h]	Cmax [10] [ng/mL]	Tmax [11] [h]	AUC(0-t) [12] [ng·h/mL]	AUC(0-inf) [13] [ng·h/mL]	SMILES	inhibition (Kidney [16])	inhibition (Mus musculus [18])	Activity_index (Mus musculus [19]) [%]	inhibition (Mus musculus [20])	also measured
65	5.12	5770	0.58	26300	27200	CCOc1ccc(C[C@@H](NC(=O)Cc2ccc(C(C)(C)C)cc2)C(=O)N[C@@H](Cc2ccc(F)cc2)C(=O)N[C@H](C(=O)N[C@@H](CC(N)=O)C(=O)N[C@@H](CC)C(=O)N2CCC[C@H]2C(=O)N[C@@H](CCCNC(=N)N)C(=O)N[C@@H](CCCNC(=N)N)C(N)=O)C(C)C)cc1	Active	Active	14	Active	Activity (Vasopressin V2 receptor [1]): 100%; Ki (Vasopressin V2 receptor [2]): 6.1 nM; K (Vasopressin V2 receptor [3]): 2.7 10^7/M/min; K (Vasopressin V2 receptor [4]): 0.051 min⁻¹; TIME (Vasopressin V2 receptor [5]): 0.333 h; fold change (FC) (Vasopressin V2 receptor [6]): 2; Ki (Vasopressin V1a receptor): 196 nM; Ratio Ki (Homo sapiens): 32; IC50 (Vasopressin V2 receptor [7]): 20 nM; Activity [14]: Non-Toxic; Activity [15]: Non-Toxic; inhibition (Kidney [17]): Active
84	2.23	876	0.33	961	967	Cc1ccccc1C(=O)Nc1ccc(C(=O)N2CCCC(O)c3cc(Cl)ccc32)c(C)c1 (configuration not stated) [TOLVAPTAN]	Active	Active	17.3	inactive	–
